pIC50: −log10 of the molar value. Activity calls are given as the source filed them. The rule behind the calls is not given here.
What was measured:
Type in all cases: functional, cell-based
HT-29 [1] = assay: Antiproliferative activity against human HT-29 cells assessed as inhibition of cell growth at 1 to 10 uM incubated for 48 hrs by MTT assay; settings: dose 1-10 µM
HT-29 [2] = assay: Antiproliferative activity against human HT-29 cells assessed as inhibition of cell growth incubated for 48 hrs by MTT assay; settings: HT-29, 48 h
HeLa = assay: Antiproliferative activity against human HeLa cells assessed as inhibition of cell growth incubated for 48 hrs by MTT assay
K562 = assay: Antiproliferative activity against human K562 cells assessed as inhibition of cell growth incubated for 48 hrs by MTT assay; settings: K562, 48 h
MCF7 = assay: Antiproliferative activity against human MCF7 cells assessed as inhibition of cell growth incubated for 48 hrs by MTT assay; settings: MCF7, 48 h
HepG2 = assay: Antiproliferative activity against human HepG2 cells assessed as inhibition of cell growth incubated for 48 hrs by MTT assay; settings: HepG2, 48 h

COc1ccc2c(c1)NCCN2C(=O)Nc1ccc(Cl)cc1
Activity (HT-29 [1]): Active

COc1ccc(OC)c(NC(=O)N2CCNc3cc(OC)ccc32)c1
pIC50 (HT-29 [2]): 4.83
pIC50 (HeLa): 5.19
pIC50 (K562): 5.34
pIC50 (MCF7): 4.39
pIC50 (HepG2): 4.69
Activity (HT-29 [1]): Active

COc1ccc2c(c1)NCCN2C(=O)NC(C)(C)C
pIC50 (HT-29 [2]): 4.55
pIC50 (HeLa): 4.60
pIC50 (K562): 4.55
pIC50 (MCF7): 4.44
pIC50 (HepG2): 4.80
Activity (HT-29 [1]): Active

COc1ccc2c(c1)NCCN2C(=O)Nc1ccccc1C
pIC50 (HT-29 [2]): 4.58
pIC50 (HeLa): 4.64
pIC50 (K562): 4.71
pIC50 (MCF7): < 4.30
pIC50 (HepG2): 4.75
Activity (HT-29 [1]): Active

O=C(Nc1cccc2ccccc12)N1CCNc2ccccc21
Activity (HT-29 [1]): Active

COc1ccc2c(c1)NCCN2C(=O)Nc1cccc2ccccc12
Activity (HT-29 [1]): inactive

COc1ccc2c(c1)NCCN2C(=O)NC1CCCCC1
Activity (HT-29 [1]): Active

COc1ccc2c(c1)NCCN2C(=O)Nc1ccc(OC(F)(F)F)cc1
Activity (HT-29 [1]): Active

COC(=O)c1ccc([C@H]2c3[nH]c4ccccc4c3C[C@H](C(=O)OC)N2C(=O)CCl)cc1
pIC50 (HT-29 [2]): 5.49

O=C(Nc1ccc(OC(F)(F)F)cc1)N1CCNc2ccccc21
Activity (HT-29 [1]): Active

COc1ccc2c(c1)NCCN2C(=O)Nc1ccc(Cl)c(C(F)(F)F)c1
Activity (HT-29 [1]): Active

COc1cccc(NC(=O)N2CCNc3cc(OC)ccc32)c1
Activity (HT-29 [1]): Active

Cc1ccc(NC(=O)N2CCNc3ncccc32)cc1
Activity (HT-29 [1]): inactive

COc1ccc2c(c1)NCCN2C(=O)Nc1ccccc1C(F)(F)F
pIC50 (HT-29 [2]): 4.54
pIC50 (HeLa): 4.78
pIC50 (K562): 4.46
pIC50 (MCF7): 4.32
pIC50 (HepG2): 4.39
Activity (HT-29 [1]): Active

CCOc1ccccc1-n1c(C(C)N2CCN(C(=O)COc3ccc(Cl)cc3)CC2)nc2ccccc2c1=O (stereo not drawn) [ERASTIN]
pIC50 (HT-29 [2]): 4.68

COc1ccc(NC(=O)N2CCNc3cc(OC)ccc32)cc1
Activity (HT-29 [1]): Active

COC(=O)c1ccc2c(c1)NCCN2C(=O)Nc1ccc(C)cc1
Activity (HT-29 [1]): inactive

COc1ccc2c(c1)NCCN2C(=O)Nc1ccc(C)cc1
Activity (HT-29 [1]): Active

O=C(NCCCl)N1CCNc2ncccc21
Activity (HT-29 [1]): inactive

COc1ccc2c(c1)NCCN2C(=O)Nc1ccccc1OC
pIC50 (HT-29 [2]): 4.72
pIC50 (HeLa): 4.93
pIC50 (K562): 4.31
pIC50 (MCF7): < 4.30
pIC50 (HepG2): 4.36
Activity (HT-29 [1]): Active

CNC(=O)c1cc(Oc2ccc(NC(=O)Nc3ccc(Cl)c(C(F)(F)F)c3)cc2)ccn1 [SORAFENIB]
pIC50 (HT-29 [2]): 5.45
pIC50 (HeLa): 4.99
pIC50 (MCF7): 5.01
pIC50 (HepG2): 4.95

CC(C)NC(=O)N1CCNc2ccccc21
Activity (HT-29 [1]): Active

Cc1ccc(NC(=O)N2CCNc3ccccc32)cc1
Activity (HT-29 [1]): Active

COc1ccccc1NC(=O)N1CCNc2ncccc21
Activity (HT-29 [1]): inactive

COC(=O)c1ccc2c(c1)NCCN2C(=O)Nc1ccc(OC)cc1
Activity (HT-29 [1]): inactive

COc1ccc2c(c1)NCCN2C(=O)NCCCCl
Activity (HT-29 [1]): Active

COc1ccc(NC(=O)N2CCNc3ccccc32)cc1
Activity (HT-29 [1]): Active

CCNC(=O)N1CCNc2cc(OC)ccc21
Activity (HT-29 [1]): Active

COc1ccc2c(c1)NCCN2C(=O)Nc1c(C)cccc1C
Activity (HT-29 [1]): Active

COc1ccc2c(c1)NCCN2C(=O)Nc1ccc(N)cc1
Activity (HT-29 [1]): Active
